US20240116947A1, “PYRIDO OXAZINE DERIVATIVES AS ALK5 INHIBITORS” (CHIESI FARMACEUTICI S.P.A., priority 2020, published 2024)
Read-outs that look alike come from different tables or passages of the source.

Biological target: human ALK5 (Homo sapiens (Human), UniProt P36897)
Test: ADP-GLO Kinases assay, inhibition of ALK5 enzymatic activity
Format: biochemical
Description: The enzymatic activity of compounds of the present invention was monitored measuring the formation of ADP using the ADP-GLO Kinases assay. Following the incubation of the purified enzyme, a substrate and ATP, the produced ADP was converted into ATP, which in turn was converted into light by Ultra-Glo Luciferase. The luminescent signal positively correlated with ADP amount and kinase activity. Briefly, the kinase reaction was performed by incubating 2.6 nM of the purified, commercially available human ALK5 (recombinant TGF β1 N-term GST-tagged, 80-end), a final concentration of TGFβ1 peptide 94.5 μM (Promega, T36-58) and ultra-pure ATP (Promega V915B). […] All reactions/incubations were performed at 25° C. Compound and ALK5 kinase were mixed and incubated for 15 mins. Reactions were initiated by addition of ATP at a final concentration in the assay of 0.83 μM. After an incubation of 150 min, the reaction was stopped, and ADP production detected with ADP-Glo kit according to manufacturer's indications. The assay was performed in 384-well format and was validated using a selection of reference compounds that was tested in 11 point concentration-response curve.

[1] = Table 4, potency bins, purified recombinant human ALK5, ADP-Glo, 25° C., read-out: ALK5 IC50

human ALK5, sequence (P36897 80-503 limits assumed): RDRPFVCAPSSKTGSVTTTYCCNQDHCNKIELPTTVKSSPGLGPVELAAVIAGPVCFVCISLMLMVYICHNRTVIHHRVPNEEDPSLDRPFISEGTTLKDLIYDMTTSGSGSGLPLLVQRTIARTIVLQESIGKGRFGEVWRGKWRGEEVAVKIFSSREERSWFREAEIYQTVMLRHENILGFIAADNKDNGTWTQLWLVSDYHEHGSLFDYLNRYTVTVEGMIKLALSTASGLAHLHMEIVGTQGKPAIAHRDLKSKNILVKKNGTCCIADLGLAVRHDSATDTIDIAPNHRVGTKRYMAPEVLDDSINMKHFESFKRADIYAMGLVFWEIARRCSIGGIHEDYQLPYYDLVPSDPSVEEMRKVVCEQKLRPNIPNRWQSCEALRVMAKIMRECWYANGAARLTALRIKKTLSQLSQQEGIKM

Row | Compound | IC50 [1] [nM] | other results
1 | CC(C)c1ccc(F)c(-c2cc3c(cn2)OCCN3c2ccnc(N)c2)c1 [Example 13, 4-{7-[2-fluoro-5-(propan-2-yl)phenyl]-1H,2H,3H-pyrido[3,4-b][1,4]oxazin-1-yl}pyridin-2-amine] | 1 to 5 | –
2 | Fc1ccc(Cl)cc1-c1cc2c(cn1)OCCN2c1ccncc1 [Example 1, 4-[7-(5-chloro-2-fluorophenyl)-1H,2H,3H-pyrido[3,4-b][1,4]oxazin-1-yl]pyridine] | 5 to 10 | –
3 | CS(=O)(=O)NCCC(=O)Nc1cc(N2CCOc3cnc(-c4cc(Cl)ccc4F)cc32)ccn1 [Example 24, N-{4-[7-(5-chloro-2-fluorophenyl)-1H,2H,3H-pyrido[3,4-b][1,4]oxazin-1-yl]pyridin-2-yl}-3-methanesulfonamidopropanamide] | < 1 | –
4 | CN1CCN(CCC(=O)Nc2cc(N3CCOc4cnc(-c5cc(Cl)ccc5F)cc43)ccn2)C(=O)C1 [Example 25, N-{4-[7-(5-chloro-2-fluorophenyl)-1H,2H,3H-pyrido[3,4-b][1,4]oxazin-1-yl]pyridin-2-yl}-3-(4-methyl-2-oxopiperazin-1-yl)propanamide] | < 1 | –
5 | COC(=O)CC1CN(C)CCN1CCC(=O)Nc1cc(N2CCOc3cnc(-c4cc(Cl)ccc4F)cc32)ccn1 (stereo not drawn) [Example 50, Methyl 2-{1-[2-({4-[7-(5-chloro-2-fluorophenyl)-1H,2H,3H-pyrido[3,4-b][1,4]oxazin-1-yl]pyridin-2-yl}carbamoyl)ethyl]-4-methylpiperazin-2-yl}acetate] | < 1 | –
6 | Fc1ccc(Cl)cc1-c1cc2c(cn1)OCCN2c1ccn[nH]1 [Example C1, 5-[7-(5-chloro-2-fluorophenyl)-1H,2H,3H-pyrido[3,4-b][1,4]oxazin-1-yl]-1H-pyrazole, reference compound] | – | IC50 (Table 5, comparative examples, same in vitro assay, read-out: ALK5 IC50): 9200 nM; IC50 (statements in running text, read-out: potency (IC50) with respect to inhibitory activity on ALK5): > 9000 nM
7 | Nc1cc(N2CCOc3cnc(-c4cccc(Cl)c4)cc32)ccn1 [Example 5, 4-[7-(3-chlorophenyl)-1H,2H,3H-pyrido[3,4-b][1,4]oxazin-1-yl]pyridin-2-amine] | 5 to 10 | –
8 | CN(CCC(=O)Nc1cc(N2CCOc3cnc(-c4cc(Cl)ccc4F)cc32)ccn1)CCS(C)(=O)=O [Example 27, N-{4-[7-(5-chloro-2-fluorophenyl)-1H,2H,3H-pyrido[3,4-b][1,4]oxazin-1-yl]pyridin-2-yl}-3-[(2-methanesulfonylethyl)(methyl)amino]propanamide] | 1 to 5 | –
9 | CS(=O)(=O)CCNCCC(=O)Nc1cc(N2CCOc3cnc(-c4cc(Cl)ccc4F)cc32)ccn1 [Example 26, N-{4-[7-(5-chloro-2-fluorophenyl)-1H,2H,3H-pyrido[3,4-b][1,4]oxazin-1-yl]pyridin-2-yl}-3-[(2-methanesulfonylethyl)amino] propanamide] | < 1 | –
10 | CN1CCN(CCC(=O)Nc2cc(N3CCOc4cnc(-c5cc(C6CC6)ccc5F)cc43)ccn2)CC1 [Example 33, N-{4-[7-(5-cyclopropyl-2-fluorophenyl)-1H,2H,3H-pyrido[3,4-b][1,4]oxazin-1-yl]pyridin-2-yl}-3-(4-methylpiperazin-1-yl)propanamide] | < 1 | –
11 | CC(C)c1ccc(F)c(-c2cc3c(cn2)OCCN3c2ccnc(NC(=O)CCN3CCN(C)CC3)c2)c1 [Example 34, N-(4-{7-[2-fluoro-5-(propan-2-yl)phenyl]-1H,2H,3H-pyrido[3,4-b][1,4]oxazin-1-yl}pyridin-2-yl)-3-(4-methylpiperazin-1-yl)propanamide] | < 1 | –
12 | CS(=O)(=O)NCCN1CCN(CCC(=O)Nc2cc(N3CCOc4cnc(-c5cc(Cl)ccc5F)cc43)ccn2)CC1 [Example 30, N-{4-[7-(5-chloro-2-fluorophenyl)-1H,2H,3H-pyrido[3,4-b][1,4]oxazin-1-yl]pyridin-2-yl}-3-[4-(2-methanesulfonamidoethyl)piperazin-1-yl]propanamide] | < 1 | –
13 | CN1CCN(CCC(=O)Nc2cc(N3CCOc4c3cc(-c3cc(Cl)ccc3F)nc4N)ccn2)CC1 [Example 51, N-{4-[5-amino-7-(5-chloro-2-fluorophenyl)-1H,2H,3H-pyrido[3,4-b][1,4]oxazin-1-yl]pyridin-2-yl}-3-(4-methylpiperazin-1-yl)propanamide] | < 1 | –
14 | NC(=O)CCN1CCN(CCC(=O)Nc2cc(N3CCOc4cnc(-c5cc(Cl)ccc5F)cc43)ccn2)CC1 [Example 37, 3-[4-(2-carbamoylethyl)piperazin-1-yl]-N-{4-[7-(5-chloro-2-fluorophenyl)-1H,2H,3H-pyrido[3,4-b][1,4]oxazin-1-yl]pyridin-2-yl}propanamide] | < 1 | –
15 | CN1CCN(CC(=O)Nc2cc(N3CCOc4cnc(-c5cc(Cl)ccc5F)cc43)ccn2)CC1 [Example 43, N-{4-[7-(5-chloro-2-fluorophenyl)-1H,2H,3H-pyrido[3,4-b][1,4]oxazin-1-yl]pyridin-2-yl}-2-(4-methylpiperazin-1-yl)acetamide] | < 1 | –
16 | Nc1cc(N2CCOc3cnc(-c4nc(Cl)ccc4F)cc32)ccn1 [Example 7, 4-[7-(6-Chloro-3-fluoropyridin-2-yl)-1H,2H,3H-pyrido[3,4-b][1,4]oxazin-1-yl]pyridin-2-amine] | 5 to 10 | –
17 | COCCC(=O)Nc1cc(N2CCOc3cnc(-c4cc(Cl)ccc4F)cc32)ccn1 [Example 40, N-{4-[7-(5-chloro-2-fluorophenyl)-1H,2H,3H-pyrido[3,4-b][1,4]oxazin-1-yl]pyridin-2-yl}-3-methoxypropanamide] | 5 to 10 | –
18 | O=C(CCN1CCN(CCN(CCO)CCO)CC1)Nc1cc(N2CCOc3cnc(-c4cc(Cl)ccc4F)cc32)ccn1 [Example 36, 3-(4-{2-[bis(2-hydroxyethyl)amino]ethyl}piperazin-1-yl)-N-{4-[7-(5-chloro-2-fluorophenyl)-1H,2H,3H-pyrido[3,4-b][1,4]oxazin-1-yl]pyridin-2-yl}propanamide] | < 1 | –
19 | CN1CCN(CCC(=O)Nc2cc(N3CCOc4c3cc(-c3cc(Cl)ccc3F)nc4C(=O)O)ccn2)CC1 [Example 44, 7-(5-chloro-2-fluorophenyl)-1-{2-[3-(4-methylpiperazin-1-yl)propanamido]pyridin-4-yl}-1H,2H,3H-pyrido[3,4-b][1,4]oxazine-5-carboxylic acid] | 1 to 5 | –
20 | COC(=O)C1CN(CCC(=O)Nc2cc(N3CCOc4cnc(-c5cc(Cl)ccc5F)cc43)ccn2)CCN1 (stereo not drawn) [Example 46, Methyl 4-[2-({4-[7-(5-chloro-2-fluorophenyl)-1H,2H,3H-pyrido[3,4-b][1,4]oxazin-1-yl]pyridin-2-yl}carbamoyl)ethyl]piperazine-2-carboxylate] | < 1 | –
21 | COC(=O)C1CN(CCC(=O)Nc2cc(N3CCOc4cnc(-c5cc(Cl)ccc5F)cc43)ccn2)CCN1C (stereo not drawn) [Example 45, Methyl 4-[2-({4-[7-(5-chloro-2-fluorophenyl)-1H,2H,3H-pyrido[3,4-b][1,4]oxazin-1-yl]pyridin-2-yl}carbamoyl)ethyl]-1-methylpiperazine-2-carboxylate] | < 1 | –
22 | CN1CCN(CCC(=O)Nc2cc(N3CCOc4cnc(-c5cc(Cl)ncc5F)cc43)ccn2)CC1 [Example 42, N-{4-[7-(2-chloro-5-fluoropyridin-4-yl)-1H,2H,3H-pyrido[3,4-b][1,4]oxazin-1-yl]pyridin-2-yl}-3-(4-methylpiperazin-1-yl)propanamide] | < 1 | –
23 | CN1CCC(CCC(=O)Nc2cc(N3CCOc4cnc(-c5nc(Cl)ccc5F)cc43)ccn2)CC1 [Example 39, N-{4-[7-(6-chloro-3-fluoropyridin-2-yl)-1H,2H,3H-pyrido[3,4-b][1,4]oxazin-1-yl]pyridin-2-yl}-3-(1-methylpiperidin-4-yl)propanamide] | < 1 | –
24 | CN1CCN(CCC(=O)Nc2cc(N3CCOc4c3cc(-c3cc(Cl)ccc3F)nc4C(F)(F)F)ccn2)CC1 [Example 56] | 5 to 10 | –
25 | CN1CCN(CCNC(=O)Nc2cc(N3CCOc4cnc(-c5cc(Cl)ccc5F)cc43)ccn2)CC1 [Example 55, 1-(4-(7-(5-chloro-2-fluorophenyl)-2,3-dihydro-1H-pyrido[3,4-b][1,4]oxazin-1-yl)pyridin-2-yl)-3-(2-(4-methylpiperazin-1-yl)ethyl)urea] | < 1 | –
26 | Nc1nc(-c2cc(Cl)ccc2F)cc2c1OCCN2c1ccncc1 [Example 2, 7-(5-chloro-2-fluorophenyl)-1-(pyridin-4-yl)-1H,2H,3H-pyrido[3,4-b][1,4]oxazin-5-amine] | 5 to 10 | –
27 | COC(=O)CN(C)CCC(=O)Nc1cc(N2CCOc3cnc(-c4cc(Cl)ccc4F)cc32)ccn1 [Example 23, methyl 2-{[2-({4-[7-(5-chloro-2-fluorophenyl)-1H,2H,3H-pyrido[3,4-b][1,4]oxazin-1-yl]pyridin-2-yl}carbamoyl)ethyl](methyl)amino} acetate] | < 1 | –
28 | CN1CC2(C1)CN(CC(=O)Nc1cc(N3CCOc4cnc(-c5cc(Cl)ccc5F)cc43)ccn1)CCO2 [Example 54, N-{4-[7-(5-chloro-2-fluorophenyl)-1H,2H,3H-pyrido[3,4-b][1,4]oxazin-1-yl]pyridin-2-yl}-2-{2-methyl-5-oxa-2,8-diazaspiro[3.5]nonan-8-yl}acetamide] | < 1 | –
29 | COC(=O)CC1CN(CCC(=O)Nc2cc(N3CCOc4cnc(-c5cc(Cl)ccc5F)cc43)ccn2)CCN1C (stereo not drawn) [Example 47, Methyl 2-{4-[2-({4-[7-(5-chloro-2-fluorophenyl)-1H,2H,3H-pyrido[3,4-b][1,4]oxazin-1-yl]pyridin-2-yl}carbamoyl)ethyl]-1-methylpiperazin-2-yl}acetate] | < 1 | –
